The text below walks through data of patent publication US8633322B2, “Alkynyl derivatives useful as DPP-1 inhibitors” (Janssen Pharmaceutica NV, priority 2009, dated 2014).

This assay addresses T1, recombinant human DPP-1 (Cathepsin C) (Homo sapiens, UniProt P53634).
T1 construct: made in house
Put plainly: DPP-1 Inhibition Assay (In Vitro), fluorogenic substrate GR-AMC. It counts as biochemical. Particulars: room temperature; 0.15 nM DPP-1, 10 uM GR-AMC, pH 7.0; average where tested multiple times. How it is done:
Test compounds were assessed for DPP-1 (Cathepsin C) inhibitory activity using a fluorogenic substrate, GR-AMC (Glycine-Arginine-amino-4-methylcoumarin, Bachem, 1-1215). The amount of amino-methylcoumarin released is proportional to the DPP-1 activity, and the reaction is monitored kinetically with a Molecular Devices plate reader using black 96-well plates.
All compounds were tested under room temperature conditions. The assay buffer consisted of 50 mM HEPES, pH 7.0, 100 mM NaCl, 2 mM glutathione (GSH), and 0.002% TWEEN 20. GSH and TWEEN 20 were added to the buffer fresh daily. Just prior to use, an in-house preparation of recombinant human DPP-1 (240 μM stock, MW 49.6 kD) was diluted 600-fold in assay buffer containing fresh 2 mM dithiothreitol (DTT) to activate the enzyme, then diluted into assay buffer (without DTT) 133-fold for a DPP-1 working solution of 3 nM. Test compounds were diluted in DMSO for 20× their final assay concentrations.
Additions to a 96-well black Costar 3915 plates were as follows: 90 μL of 11 μM GR-AMC, 5 μL test compound (followed by mixing), and 5 μL 3 nM DPP1 to start the reaction. Fluorescent reactions were monitored kinetically at 360 nm excitation, 440 nm emission on a Molecular Devices Spectramax XPS reader. The Softmax Pro software of the reader determined the initial velocity of the selected data (the first 3-5 minutes of the reaction), and the best linear regression fit of the initial kinetic data. Final assay conditions were 0.15 nM DPP-1, 10 uM GR-AMC, 50 mM HEPES, pH 7.0, 100 mM NaCl, 2 mM GSH, 0.002% TWEEN 20, 1 uM DTT, 5.0% DMSO. Initial velocity rates were plotted vs. test compound concentration by use of a four-parameter logistics equation (nonlinear regression, sigmoidal dose-response (variable slope), with fixed Hill (1.0) using GraphPad Prism® software for determination of DPP-1 IC50. Within-run assay coefficient of variation (CV) was generally <10%; between-run CV <20%.
Representative compounds of the present invention were tested according to the procedure as described above, with results as listed in Table 2, below. Additionally, Table 2 below lists the measured mass for said representative compounds of the present invention, more particularly the mass of the MH^+ ion.

T1 sequence (P53634 25-463): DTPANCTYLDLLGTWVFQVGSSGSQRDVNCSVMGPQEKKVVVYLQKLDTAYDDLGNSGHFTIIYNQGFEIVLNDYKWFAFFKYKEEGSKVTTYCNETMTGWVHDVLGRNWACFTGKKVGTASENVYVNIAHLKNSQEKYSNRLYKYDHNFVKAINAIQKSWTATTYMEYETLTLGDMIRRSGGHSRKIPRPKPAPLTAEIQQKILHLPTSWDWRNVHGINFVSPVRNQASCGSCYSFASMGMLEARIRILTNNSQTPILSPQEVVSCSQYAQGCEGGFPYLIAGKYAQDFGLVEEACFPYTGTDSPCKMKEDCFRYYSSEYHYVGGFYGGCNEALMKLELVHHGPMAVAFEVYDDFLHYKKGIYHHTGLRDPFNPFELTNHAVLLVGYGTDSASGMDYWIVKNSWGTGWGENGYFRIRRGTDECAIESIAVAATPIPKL

Regarding `CC(C)[C@H](N)C(=O)NCCCC#Cc1cccc(OC2CCNCC2)c1` [Compound 16, (S)-2-amino-3-methyl-N-(5-(3-(piperidin-4-yloxy)phenyl)pent-4-ynyl)butanamide], the IC50 (usually the concentration needed to halve the response being measured) amounted to 12.8 µM.

On to `N[C@@H](Cc1cccnc1)C(=O)NCCCC#Cc1cccc(OC2CCNCC2)c1` [Compound 33], for which the IC50 stood at 15 µM.

As for `CC[C@H](N)C(=O)NCCCC#Cc1cccc2ccccc12` [Compound 41], the 50% inhibitory concentration (IC50) is 2.53 µM.

Regarding `CC[C@H](N)C(=O)NCCCC#Cc1cccc(OC2CCNCC2)c1` [Compound 9], the IC50 stood at 1.37 µM.

As to `CC[C@H](N)C(=O)NCCCC#Cc1ccc(F)c2ccccc12` [Compound 84], the IC50 amounted to 7.2 µM.

As for `C#CC[C@H](N)C(=O)NCCCC#Cc1cccc(-c2ccccc2)c1` [Compound 24], the IC50 is 0.4 µM.

On to `CC[C@H](N)C(=O)NCCCC#Cc1ccccc1` [Compound 98], for which the half-inhibitory concentration (IC50) was determined as 7.9 µM.

Take `C#CC[C@H](N)C(=O)NCCCC#Cc1cc(OC)cc(OC2CCNCC2)c1` [Compound 7, (S)-2-amino-N-(5-(3-methoxy-5-(piperidin-4-yloxy)phenyl)pent-4-ynyl)pent-4-ynamide]: the IC50 was determined as 1.6 µM.

In the case of `CC[C@H](N)C(=O)NCCCC#Cc1c(C)cccc1C` [Compound 49], the IC50 worked out at 3.28 µM.

As for `C=CCC[C@H](N)C(=O)NCCCC#Cc1cccc(OC2CCNCC2)c1` [Compound 8], the IC50 is 1.64 µM.

For `CC[C@H](N)C(=O)NCCCC#Cc1c(C)cc(C)cc1C` [Compound 55], the IC50 is 9.5 µM.
